Earlier results, collected in patent US7179486B1, “Process for preparing sustained release tablets” (Nostrum Pharmaceuticals, Inc., priority 1997, dated 2007).

- dosage release within a one hour period causing a flushing response in most subjects: more than 75 mg
SMILES: O=C(O)c1cccnc1 [niacin, Niacin]
